# Laboratory results from patent US8952024B2, “Herbicidal pyrimidone derivatives” (E I du Pont de Nemours and Company, priority 2009, dated 2015).
# Experiments:
# Type in all cases: in vivo
# [1] = test system: corn (Zea mays); test: Test A pre-/postemergence plant response
# In short: (§1)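 Each species was treated preemergence via directed soil spray and postemergence at the one- to two-leaf stage, with compounds formulated in a non-phytotoxic solvent plus surfactant. Visual injury relative to untreated controls was rated after about ten days on a 0–100 scale.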
# [2] = test system: giant foxtail (Setaria faberii); test: Test A pre-/postemergence plant response
# In short: as §1
# [3] = test system: large crabgrass (Digitaria sanguinalis); test: Test A pre-/postemergence plant response
# In short: as §1
# [4] = test system: morningglory (Ipomoea spp.); test: Test A pre-/postemergence plant response
# In short: as §1
# [5] = test system: velvetleaf (Abutilon theophrasti); test: Test A pre-/postemergence plant response
# In short: as §1
# [6] = test system: wheat (Triticum aestivum); test: Test A pre-/postemergence plant response
# In short: as §1
# [7] = test system: canarygrass (Phalaris minor); test: Test B postemergence plant response
# In short: (§2)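 Visual ratings from 0 (no effect) to 100 (complete control), made against controls 13–15 days after treatment, kept in a greenhouse. Compounds were applied postemergence to potted plants at the 1- to 4-leaf stage (2–18 cm).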
# [8] = test system: chickweed (Stellaria media); test: Test B postemergence plant response
# In short: as §2
# [9] = test system: windgrass (Apera spica-venti); test: Test B postemergence plant response
# In short: as §2
# [10] = test system: winter barley (Hordeum vulgare); test: Test B postemergence plant response
# In short: as §2
# [11] = Postemergence, 125 g ai/ha, 0 to 100 scale where 0 is no effect and 100 is complete control
# [12] = Postemergence, 500 g ai/ha, 0 to 100 scale, 0 = no effect, 100 = complete control, approx. ten days
# [13] = Preemergence, 125 g ai/ha, 0 to 100 scale, 0 = no effect, 100 = complete control
# [14] = Preemergence, 500 g ai/ha, visual injury, 0 to 100 scale (0 no effect, 100 complete control), approx. ten days
# [15] = 31 g ai/ha, postemergence, scale 0 to 100, 0 is no effect, 100 is complete control
# [16] = 62 g ai/ha, postemergence, 0 is no effect, 100 is complete control, 13 to 15 days
# [17] = Postemergence, 125 g ai/ha, visual rating after 13 to 15 days, scale 0 (no effect) to 100 (complete control)
# [18] = Postemergence, 250 g ai/ha, scale 0 to 100 (0 no effect, 100 complete control)
smiles,measurement,setting,value
CCCn1c(-c2ccsc2)ncc(C(=O)C2=C(O)CCCC2=O)c1=O [Compound 93],"Plant response rating, Corn",[1]; [11],10
same,"Plant response rating, Corn",[1]; [12],30
same,"Plant response rating, Corn",[1]; [13],0
same,"Plant response rating, Corn",[1]; [14],0
same,"Plant response rating, Foxtail, Giant",[2]; [11],80
same,"Plant response rating, Foxtail, Giant",[2]; [12],90
same,"Plant response rating, Foxtail, Giant",[2]; [13],60
same,"Plant response rating, Foxtail, Giant",[2]; [14],80
same,"Plant response rating, Crabgrass, Large",[3]; [11],90
same,"Plant response rating, Crabgrass, Large",[3]; [12],100
same,"Plant response rating, Crabgrass, Large",[3]; [13],90
same,"Plant response rating, Crabgrass, Large",[3]; [14],100
same,"Plant response rating, Morningglory",[4]; [11],100
same,"Plant response rating, Morningglory",[4]; [12],100
same,"Plant response rating, Morningglory",[4]; [13],80
same,"Plant response rating, Morningglory",[4]; [14],90
same,"Plant response rating, Velvetleaf",[5]; [11],100
same,"Plant response rating, Velvetleaf",[5]; [12],100
same,"Plant response rating, Velvetleaf",[5]; [13],90
same,"Plant response rating, Velvetleaf",[5]; [14],100
same,"Plant response rating, Wheat",[6]; [11],0
same,"Plant response rating, Wheat",[6]; [12],0
same,"Plant response rating, Wheat",[6]; [13],0
same,"Plant response rating, Wheat",[6]; [14],0
same,"Plant response rating, Canarygrass",[7]; [15],0
same,Canarygrass plant response rating (0 to 100 scale),[7]; [16],0
same,"Plant response rating, Canarygrass",[7]; [17],5
same,"Plant response rating, Canarygrass",[7]; [18],10
same,"Plant response rating, Chickweed",[8]; [15],80
same,Chickweed plant response rating (0 to 100 scale),[8]; [16],80
same,"Plant response rating, Chickweed",[8]; [17],95
same,"Plant response rating, Chickweed",[8]; [18],98
same,"Plant response rating, Windgrass",[9]; [15],5
same,Windgrass plant response rating (0 to 100 scale),[9]; [16],10
same,"Plant response rating, Windgrass",[9]; [18],55
same,"Plant response rating, Barley",[10]; [15],0
same,Barley plant response rating (0 to 100 scale),[10]; [16],0
same,"Plant response rating, Barley",[10]; [17],5
same,"Plant response rating, Barley",[10]; [18],5
